Results on two compounds are retold here after patent US20160022762A1, “Agent for Eliminating Multidrug Resistance” (priority 2008, published 2016).

One data set has as its system P-gp. In words: calcein formation rate from calcein AM in R388VR cells without Co2+. The settings on record: up to 1.2 μM.
In data set [1] the test system is multidrug resistance proteins in the Hep-2 cells. In words: calcein formation rate in Hep-2 cells with Co2+ ions. The class given is cell-based, human. Also noted: calcein formation rate increment ratio: dose or concentration left out as unconfirmed. Particulars: Co2+ ions present.
The subject of data set [2] is human laryngeal cancer cells Hep-2. In words: survival of Hep-2 cells exposed to arsenate (crystal violet). The class given is cell-based. On the procedure: The human laryngeal cancer cells Hep-2 in Dulbecco's modified Eagle's medium (hereinafter referred to as DMEM) (Sigma) supplemented with 10% foetal calf serum (Sigma) and 40 μg/ml of gentamycin (Sigma) were sown in a 96-well culture plate, 0.1 ml per well, at a concentration of 50,000/ml, followed by adding the agents being examined and incubating for 72 hour at 37° C. in an atmosphere of 5% CO2 in air. After incubation, the cells were stained with 0.02% crystal violet solution (Sigma) in 20% ethanol for 10 minutes followed by discarding the stainer solution, washing the cells with water and adding a 0.1% SDS solution for the extraction of the stainer from the cells. The optical density was measured at 570 nm on the spectrophotometer Multiscan Plus. The effect was determined by the formula: No/Nk=(Do−D)/(Dk−D) 100%, where Do, Dk, D are optical densities in the experiment, control, and the background one, respectively, and No/Nk is the cell survival rate: the number of the live cells in the experiment in relation to the control.

The target of data set [3] is T1, MRP (Mus musculus, UniProt O35379). In words: calcein efflux rate from preliminarily calcein-loaded R388VR cells.
T1 sequence (O35379 whole entry): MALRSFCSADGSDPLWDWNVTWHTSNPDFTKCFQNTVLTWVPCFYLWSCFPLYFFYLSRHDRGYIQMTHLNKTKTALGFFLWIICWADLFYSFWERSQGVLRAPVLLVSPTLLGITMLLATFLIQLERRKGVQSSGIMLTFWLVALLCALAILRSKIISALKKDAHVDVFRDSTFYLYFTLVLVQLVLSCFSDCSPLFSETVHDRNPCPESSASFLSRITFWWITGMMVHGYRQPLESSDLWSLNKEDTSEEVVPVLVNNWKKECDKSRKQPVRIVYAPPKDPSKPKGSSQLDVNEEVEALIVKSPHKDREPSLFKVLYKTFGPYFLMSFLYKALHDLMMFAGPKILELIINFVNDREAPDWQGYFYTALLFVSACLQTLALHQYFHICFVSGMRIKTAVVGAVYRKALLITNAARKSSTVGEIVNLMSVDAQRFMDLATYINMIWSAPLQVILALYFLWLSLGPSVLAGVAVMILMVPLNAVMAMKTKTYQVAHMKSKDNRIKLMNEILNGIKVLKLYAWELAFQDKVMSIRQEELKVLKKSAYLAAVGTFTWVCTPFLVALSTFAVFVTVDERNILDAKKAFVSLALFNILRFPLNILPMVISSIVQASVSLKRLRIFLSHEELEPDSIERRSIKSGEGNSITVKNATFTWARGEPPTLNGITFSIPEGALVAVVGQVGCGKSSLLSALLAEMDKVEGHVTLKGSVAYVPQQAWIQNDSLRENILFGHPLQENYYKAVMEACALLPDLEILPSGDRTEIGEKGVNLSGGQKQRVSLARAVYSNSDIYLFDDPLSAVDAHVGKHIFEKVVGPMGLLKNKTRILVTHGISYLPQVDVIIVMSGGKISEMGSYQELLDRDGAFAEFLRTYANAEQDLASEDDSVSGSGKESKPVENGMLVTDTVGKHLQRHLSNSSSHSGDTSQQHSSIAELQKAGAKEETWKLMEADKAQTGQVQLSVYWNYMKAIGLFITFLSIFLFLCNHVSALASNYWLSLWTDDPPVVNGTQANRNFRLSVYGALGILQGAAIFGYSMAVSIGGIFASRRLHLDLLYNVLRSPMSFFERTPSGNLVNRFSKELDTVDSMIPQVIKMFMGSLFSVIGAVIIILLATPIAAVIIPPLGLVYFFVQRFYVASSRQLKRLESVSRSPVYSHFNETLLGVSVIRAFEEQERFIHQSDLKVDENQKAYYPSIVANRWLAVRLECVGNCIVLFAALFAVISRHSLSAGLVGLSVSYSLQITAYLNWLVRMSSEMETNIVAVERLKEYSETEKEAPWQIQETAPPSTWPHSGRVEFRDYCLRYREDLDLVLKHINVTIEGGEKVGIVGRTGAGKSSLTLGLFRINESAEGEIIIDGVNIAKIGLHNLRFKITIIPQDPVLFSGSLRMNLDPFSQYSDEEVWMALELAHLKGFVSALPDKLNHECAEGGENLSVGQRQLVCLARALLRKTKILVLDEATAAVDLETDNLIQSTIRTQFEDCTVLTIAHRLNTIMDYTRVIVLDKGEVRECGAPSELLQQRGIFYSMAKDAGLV
The test system of the next data set is Hep-2 cells. The data set can be described thus: growth of Hep-2 tumour cells (trypan blue count). The class given is cell-based, human. The settings on record: 1 μg/ml, three days. Here is the method:
Human laryngeal cancer cells Hep-2 in DMEM medium supplemented with 10% foetal calf serum and 40 μg/ml gentamycin were inoculated in 2-ml penicillin-containing vials, 200 thousand per each vial. The hexapeptide at a dose of 1 μg/ml was added 3 hours after cell inoculation (when they had already adhered to glass) and left in the medium for the whole period of incubation. Three days after inoculation, the cells were detached from glass with trypsin, followed by calculating the number of the living cells: unstained with a 0.04% solution of trypan blue.

The conditions of data set [4]: in vivo.
Data set [5] deals with stage III cervical carcinoma. In words: clinical case, chemoradiotherapy with hexapeptide (Example 5). It counts as in vivo, human. Here is the method:
Patient. Clinical diagnosis: stage III cervical carcinoma (T3NX-1M0). Examination of the patient included clinical and laboratory assessment both at admission and during treatment. […] general condition was of moderate severity. […] The percentage of CD3, CD4, CD8, CD16-positive cells was decreased relative to the average statistical normal values 2-fold. The person prior to antineoplastic treatment had received a course of 5-time administration of the hexapeptide in the form of 1 ml of 0.005% solution subcutaneously daily for 5 days. Chemoradiotherapy was carried out according to the regimen: 500 mg of 5-fluorouracil (total dose 2,500 mg). During the whole course of chemoradiotherapy, the person received 1 ml of 0.005% solution of the hexapeptide (biopoetin) 5 times daily. Two days after discontinuation of 5-fluorouracil, the patient underwent remote irradiation at a single dose of 4 Gy on the background of intravenous administration of 30 mg of cysplastin for 3 days (total dose of cysplastin amounting to 90 mg). Then radiotherapy was continued in the mode of a daily multifractionated dose. Irradiation was carried out up to a focal dose of 20 Gy onto the area of the primary focus and zones of regional metastatic spreading, followed by additional intracavitary gamma-therapy (10 fractions 5 Gy each) and remote irradiation was continued onto the zones of parametrial metastatic spreading up to the total dose amounting to 44 Gy.

A further data set relates to breast cancer T4cN2M0. In words: clinical case, radiotherapy and CMF polychemotherapy with hexapeptide intranasal spray (Example 8). It counts as in vivo, human. The text has this:
Onto the area of the left breast from two tangential opposed fields and with the figured field onto the zones of regional lymph outflow on the left radiotherapy was begun using linear accelerator (LU-20-SL with the deceleration-radiation energy of 6 MeV) in the mode of average dose fractionating, at 3 Gy daily 5 times a week onto the area of the tumour up to the total focal dose (TFD) 45 Gy equivalent to the mode of the conventional fractionation consisting of 2 Gy a day, with TFD 60 Gy, and onto the zones of regional lymph outflow on the left (supraclavicular, subclavicular, axillary and parasternal sites) at a single dose of 3 Gy up to the TFD 33-36 Gy equivalent to 44-48 Gy of the conventional fractionation.
The patient's state after the irradiation course was satisfactory, with the tumour ulceration being at the scarring stage and virtually no discharge. Two weeks later, polychemotherapy was begun according to the CMF regimen carried out for 4 weeks once a week. During 5 days prior to commencing chemotherapy, the person daily received the hexapeptide in the form of an intranasal dosed spray […] at a single dose of 100 μg. The CMF regimen included intravenous drip administration of 1 g of 5-fluorouracil and 40 mg of methotrexate and intramuscular administration of 1 g cyclophosphane. During polychemotherapy, the patients daily received the hexapeptide in the form of an intranasal dosed spray, with the single dose equalling 100 μg.
A repeat course of CMF. The patient received intravenously 40 mg of methotrexate and 1 g of 5-fluorouracil and intramuscularly 1 g of cyclophosphane. The state after polychemotherapy was satisfactory. A cicatrix formed on the site of the previous breast ulceration. Regional lymph nodes were not perceived, the breast was soft to the touch, with no fresh infiltrates. On the mammograms, the tumour node as compared with the findings of mammography obtained at the beginning of treatment had decreased to 5 mm in diameter. Then sequentially a course of polychemotherapy was carried out according to the same regimen and in the same doses. During 5 days prior to commencing chemotherapy, the patient daily received hexapeptide in the form of an intranasal dosed spray 5 times a day at a single does of 100 μg. During polychemotherapy, the patient daily received hexapeptide in the form of an intranasal dosed spray 5 times a day at a single does of 100 μg.

Data set [6] has as its target T1, MRP. The data set can be described thus: calcein formation rate in R388VR cells in the presence of Co2+ (extracellular calcein quenching). The settings on record: presence of Co, 12 μM.
Data set [7] concerns stage III oesophageal cancer. It counts as in vivo, human. On the procedure: Clinical diagnosis: stage III oesophageal cancer (T3-4N0-2MOP3). At admission, the patient's general condition of moderate severity. The laboratory indices of the total blood count without pronounced alterations. Noted was a considerable disbalance of the indices of the oxidative-antioxidative system on the background moderate-degree immunosuppression. The state of the oxidative-antioxidative system in the patients was assessed by intensity of lipid peroxidation via measuring blood serum concentration of malonic dialdehyde (MDA, μmol/L) and endogenous antioxidants: lactoferrin (LF, mg/L), caeruloplasmin (CP, conventional units), and the antioxidant enzyme catalase (CAT, conventional units). The analysis of percentage content of the main subpopulations of T-lymphocytes was carried out to superficial receptors of CD3 (T-lymphocytes), CD4 (T-helpers/inducers), CD8 (T-suppressors/cytotoxic lymphocytes), CD16 (natural killers), CD25 (activated lymphocytes expressing the receptor to interleukin-2), CD72 (B-lymphocytes). […] At the same time, the indices of the lymphocytic link were virtually within the normal values. Since CP and LF are proteins of the acute phase of inflammation, an increase in the blood serum reflected the presence of an inflammatory process accompanying the development of oesophageal cancer. Prior to chemoradiotherapy, the patient received intramuscular administration of the hexapeptide daily at a single dose of 1 ml of 0.1% solution 5 times a day for 5 days. Comprehensive chemoradiotherapy was carried out according to the following regimen: 750 mg of 5-fluorouracil (5-FU) was administered intravenously for 5 days (total dose 3,750 mg), two days after the end of administration of 5-FU, the patients was irradiated according to the regimen of dynamic fractionation of the dose at a single dose of 4 Gy on the background of intravenous administration of cysplastin at a dose of 30 mg for 3 days (total dose of cysplastin 90 mg, total focal dose 12 Gy). During the whole period of chemoradiotherapy, the patients was given hexapeptide at a single dose of 100 μg twice daily (in the morning and evening). Commencing from day 11, radiotherapy was continued in the mode of the classical fractionated dose, with the single dose equalling 2 Gy (total focal dose 40 Gy).

Data set [8] concerns multidrug resistance-associated transport proteins in Hep-2 cells. The data set can be described thus: rhodamine 123 efflux rate from Hep-2 cells.
Method: While studying the effect of the inhibitors on the release of Rh123, to the cuvette after several minutes of the normal excretion of the stainer we added the inhibitor in the required concentration. Determining the control and inhibited constants of rhodamine excretion rates on one plate decreases the error of determining their ratio, necessary for obtaining the R value. […] The total amount of rhodamine in the cells was determined by the difference of the fluorescence levels after adding digitonin and before adding cells to the cuvette. The relative amount of Rh123 in the cells (N) was determined according to the following formula: N=1−{It−I0/Imax−I0}, where It, I0, Imax are the values of fluorescence of Rh123 in the medium at the time moments t, 0 and the peak fluorescence after adding digitonin, respectively.
The effect of each concentration of the agents on Rh123 excretion was determined in several experiments.
A further data set in a line: local irritating effect. The settings on record: in vivo.
The nature of data set [9]: solubility of the active principle. It counts as physicochemical.
For data set [10], the system named is squamous-cell oesophageal cancer. It counts as in vivo, human. Here is the method: The disease was manifested by retrosternal pain, weakness, weight loss. […] Prior to chemoradiotherapy, the patient was given the hexapeptide in the form of a suppository at a dose of 5 mg five times daily for 5 days. The first stage of combined-modality treatment consisted of two courses of polychemotherapy. During the whole period of chemoradiotherapy, the patient received treatment with the proposed agent in the form of rectal suppositories 5 μg twice daily (in the morning and evening).

The nature of data set [11]: preclinical and clinical studies: toxic reaction and side effects. It counts as in vivo.
The test system of another data set is tumour cells. The settings on record: calcium channel blocker; cited from earlier work.

Molecules are shown by their SMILES. Entries after “also recorded” stand apart in the source; their conditions may differ. Peptide text beside a SMILES is read from it.

From the text for P-gp: The rate of calcein formation in the dish with calcein AM added without Co2+ ions makes it possible to determine the activity of the transport proteins expelling calcein AM out of cells, rather than that of the proteins capable of transporting calcein from the cells (MRP), since in this case total calcein is registered: both intra- and extracellular.

For the compound `NCCCC[C@H](NC(=O)CNC(=O)[C@H](Cc1c[nH]cn1)NC(=O)[C@@H](N)CCCCN)C(=O)N[C@@H](Cc1c[nH]cn1)C(=O)NCC(=O)O` [hexapeptide, lysyl-histidyl-glycyl-lysyl-histidyl-glycine] (H-KHGKHG-OH), the allergic activity entry in “allergic activity” is on record as “neither allergic nor mutagenic activity”. Further, the “effect on calcein formation rate” value in the data set with P-gp is “does not act upon the calcein formation rate”. In [1], the “calcein formation rate increment ratio” value is listed as 2.6. Besides, the “increase of rate of calcein formation in cells” value in data set [1] (1.2 nM) is “twofold”. Further, the “increase in sensitivity of Hep-2 cells to arsenate” value in [2] (1.2 nM) turned out to be 3 fold. For the same compound, the “effect on sensitivity to arsenate and survival of Hep-2 cells” value in [2] (50 μM arsenate) was “increases sensitivity of the tumour cells to the cytostatic preparation arsenate and inhibits survival of the Hep-2 cells”. In addition, the “decrease of calcein excretion rate” value on MRP [3] (1.2 nM) is on record as 1.5 fold. Moreover, the “calcein excretion rate inhibition ratio” value on MRP [3] (120 nM) is 2.6. The “effect on growth of Hep-2 tumour cells” value in the data set with Hep-2 cells is “virtually does not influence the growth”. Moreover, in [4], the “death of laboratory animals after a single dose” value is “caused no death”. The mutagenic activity result in “mutagenic activity” was “neither allergic nor mutagenic activity”. Besides, in data set [5], the MDR development entry was “No events of MDR development were observed”; the “indices of immunity and total blood count after chemoradiotherapy” value is “did not virtually alter”; the tumour outcome was “complete resorption of the tumour”. In [5] (1 ml of 0.005% solution subcutaneously), the “side reactions during chemoradiotherapy” value was “No pronounced side reactions were observed”. For the same compound, in the data set on breast cancer T4cN2M0 (5th course of CMF), the “development of MDR” value is listed as “No development of MDR was noted”. Besides, the “tumour node diameter on mammograms” value in the data set with breast cancer T4cN2M0 (after repeat course of CMF) turned out to be 5 mm. Besides, in the data set on breast cancer T4cN2M0 (before fourth course of polychemotherapy), the “tumour node size on mammograms” value came to 3.8 cm. Moreover, the “relapse or metastases at examination” value in the data set on breast cancer T4cN2M0 (clinical and roentgenological study, check-up 15 months after the beginning of treatment) is “no findings suggesting either a breast tumour relapse or metastases; also recorded: no signs of the disease's relapses”. The “tolerance of chemoradiotherapy / polychemotherapy” value with breast cancer T4cN2M0 (intranasal dosed spray, CMF regimen) was “tolerated chemoradiotherapy satisfactorily; also recorded: well tolerated”. Also, the “increase of calcein formation rate” value at MRP [6] was “double”. The disease relapses result in data set [7] (12-month follow-up) is listed as “no disease relapses”. Further, in data set [7] (human, in vivo), the “indices of natural cellular and T-lymphocytic immunity, acute inflammation phase proteins” value is reported as “did not alter substantially”. For the same compound, in data set [7] (with chemoradiotherapy), the “symptoms of MDR” value is given as “No symptoms of MDR were observed” and the tumour outcome is recorded as “complete resorption of the tumour”. Also, in [8], the “optimal concentration of maximal inhibition of Rh123 excretion” value stood at 1 ng/mL. The “R value (Rh123 excretion inhibition)” value in data set [8] (1 ng/ml) amounted to 3.2. For the same compound, the local irritating effect entry in “local irritating effect” is recorded as “no local irritating effect”. Besides, the solubility in alcohol result in data set [9] (alcohol) is “not alcohol- or chloroform-soluble”. Besides, the solubility in chloroform result in data set [9] (chloroform) was “not alcohol- or chloroform-soluble”. Further, the “solubility in isotonic sodium chloride solution” value in [9] (isotonic sodium chloride solution) is given as “readily soluble”. In addition, the solubility in water result in data set [9] (water) is “readily soluble”. Moreover, the “tumour at check-up examinations” value in data set [10] (after polychemotherapy) is recorded as “no oesophageal tumour perceived”. For the same compound, the “metastases into lymph nodes” value in [10] (histology of subtotal oesophageal resection) was “No metastases into lymph nodes were detected”. Further, in data set [10] (human, in vivo), the “manifestations of toxicosis during polychemotherapy” value is reported as “No markedly pronounced manifestations of toxicosis were observed”. For the same compound, in [11], the “toxic reaction and side effects” value is “neither induces a pronounced toxic reaction nor leads to development of side effects”.

For the compound `COc1ccc(CCN(C)CCCC(C#N)(c2ccc(OC)c(OC)c2)C(C)C)cc1OC` (stereo not shown) [verapamil], the “dose exhibiting in vitro MDR inhibiting activity” value with tumour cells is “approximately 10 μM”.
